{
  "source": "patent US5440012A",
  "about": "“Calcitonin and method for the preparation and use thereof” (Sumitomo Metal Industries, Ltd., priority 1991, dated 1995)",
  "key": {"[1]": {"system": "grown cartilage cell culture of rabbit costal cartilage", "assay": "Alkaline phosphatase activity per protein in rabbit costal cartilage cell culture (chondrocyte differentiation)", "format": "cell-based", "conditions": "10 μl of 10^-12 mol/ml calcitonin solution added on fourth and sixth days, 9 days incubation; control about 88,150", "protocol": "When their physiological activities on cartilage cells or chondrocytes were determined according to the technique of Bessey et al (J. Biol. Chem. 164: 321-329, 1964) and that of Lowry et al (J. Biol. Chem. 193: 265-275, 1951), a strong cell differentiation-promoting activity was noted. […]\nAfter incubation for 9 days, the cell layer (1) was recovered and the alkaline phosphatase activity in each well was determined by the method of Bessey et al (J. Biol. Chem. 164: 321-329, 1946) using p-nitrophenylphosphoric acid as a substrate.\nThe amount of protein in each well was also determined by assaying the recovered cell layer (1) in accordance with the method of Lowry et al (J. Biol. Chem. 193: 265-275, 1951) using bovine serum albumin as a standard substance.\nThe value for alkaline phosphatase activity per unit weight of protein was calculated from the values for alkaline phosphatase activity and amount of protein determined as above. The calculated value of the control was about 88,150 nmol/30 min/mg-protein. […]"}, "[2]": {"system": "concentration of calcium in the serum", "assay": "Blood calcium-decreasing activity in rats (serum calcium, parallel line assay)", "format": "in vivo, Male Wistar rats", "protocol": "The physiological activities of the pure naturally-occurring stingray calcitonin extracted from the ultimobranchial gland of a stingray and those of synthetic stingray calcitonin obtained in the above-described manner were determined according to the technique of Homma et al (J. Biochem. 100: 459-467, 1986).\nMale Wistar rats weighing 90-110 grams (10 animals in each group) which had fasted for 24 hours prior to the experiment were intravenously injected with a standard solution of salmon calcitonin or eel calcitonin or a solution of the synthetic stingray calcitonin (produced in Example 2) each dissolved in an aqueous 0.9% sodium chloride solution (pH 4.6) containing 0.1% bovine serum albumin at a dose of 1 pmol or 10 pmol per animal. Exactly one hour after the administration, a blood sample was collected from the artery of each test animal and the concentration of calcium in the serum was determined by atomic absorption spectroscopy. Based on the values for serum calcium concentration in rats of the groups in which one of the standard solutions was administered at a dose of 1 pmol or 10 pmol per animal and those in rats of the group in which the stingray calcitonin of the present invention was administered at the same dose, the relative titer of the stingray calcitonin was determined by the standard statistical procedures for parallel line assays. […]"}},
  "note": "Positions of bridges follow the written chain, without caps; N, C: chain ends. Residues, ends and D or L forms follow the SMILES beside them.",
  "data": [
    {"smiles": "CC[C@H](C)[C@H](NC(=O)[C@H](CC(N)=O)NC(=O)[C@H](CCC(N)=O)NC(=O)[C@H](CC(C)C)NC(=O)[C@H](CCCCN)NC(=O)[C@H](Cc1c[nH]cn1)NC(=O)[C@H](CC(C)C)NC(=O)[C@H](CCC(N)=O)NC(=O)[C@H](CCC(N)=O)NC(=O)[C@H](CO)NC(=O)[C@H](CC(C)C)NC(=O)[C@H](CCCCN)NC(=O)CNC(=O)[C@@H](NC(=O)[C@@H](NC(=O)[C@@H]1CSSC[C@H](N)C(=O)N[C@@H]([C@@H](C)O)C(=O)N[C@@H](CO)C(=O)N[C@@H](CC(C)C)C(=O)N[C@@H](CO)C(=O)N[C@@H]([C@@H](C)O)C(=O)N1)C(C)C)C(C)C)C(=O)N[C@@H](CCC(N)=O)C(=O)N[C@@H](CCCNC(=N)N)C(=O)N[C@H](C(=O)N[C@@H](CC(=O)O)C(=O)N[C@H](C(=O)NCC(=O)N[C@@H](C)C(=O)N[C@@H](C)C(=O)N[C@H](C(=O)N1CCC[C@H]1C(N)=O)[C@@H](C)O)C(C)C)[C@@H](C)O", "note": "[calcitonin of the present invention] (H-CTSLSTCVVGKLSQQLHKLQNIQRTDVGAATP-NH2; disulfide 1-7)", "values": [
      {"measurement": "alkaline phosphatase activity per unit weight of protein", "setting": "[1]", "result": "about 106,000 nmol/30 min/mg-protein"},
      {"measurement": "titer (blood calcium-decreasing activity)", "setting": "[2]; rats, intravenous, 1 pmol or 10 pmol per animal, serum calcium one hour after administration, salmon and eel calcitonin used as standard substances", "result": "about 3770 IU/mg"},
      {"measurement": "blood calcium-decreasing activity (in words)", "setting": "[2]; technique of Homma et al", "result": "strong blood calcium-decreasing activity"}
    ]}
  ]
}
